Literature values, collected in patent US20260258033A1, “2,7-Naphthyridine Compounds as MASTL Inhibitors” (Pfizer Inc., priority 2022, published 2026).

System: breast cancer cells
Details: in breast cancer cells; Kang et al., Pharmaceuticals 2021; read-out: cellular IC50; cited from earlier work

N#CCc1ccc(Nc2nc(Nc3cc(C4CC4)[nH]n3)c3ccccc3n2)cc1 [MKI-2, 2-(4-((4-((5-cyclopropyl-1H-pyrazol-3-yl)amino)quinazolin-2-yl)amino)phenyl)acetonitrile]
IC50: 143 nM
